Assay results reported in patent US20230310436A1, “COMBINATION THERAPY FOR CANCERS WITH KRAS MUTATION” (COTHERA BIOSCIENCE, INC., priority 2019, published 2023).

What was measured:
Assay type in all cases: cell-based
[1] = test system: KRAS^G12A-NSCLC H1573 cell line; assay: Ex vivo Edu proliferation test (MI, GI %), H1573; conditions: Table 1; 4 days; uM: osimertinib 0.5, afatinib 0.2, cobimetinib 0.4, trametinib 0.02, TAK-733 0.18, palbociclib 0.15, ribociclib 5
Experimental: (§1) For ex vivo drug testing, the cells were exposed to a combination of drugs or single drugs for 4 days or 7 days. Following exposure with drug, 1,000-5,000 cells were labeled with 5-ethynyl-2′-deoxyuridine (Edu) to assess the tumor cell proliferation rates. The labeling lasted 24 hours in the presence of drug exposure. In the control group, epithelial tumor cells received no drug exposure with media change (with 0.1% DMSO), but were similarly labeled with Edu. The labeled cells were fixed and blocked with 3% BSA and 0.5% Triton X-100 for 2 hours at room temperature, followed by staining with Hoechst 33342 and EpCAM antibody (1:4000) in PBS solution containing 0.5% Triton X-100 overnight at 4° C. Subsequently, the cells were rinsed with PBST then incubated with Alexa Fluor® 647 conjugated goat-antimouse secondary antibody for 30 minutes at room temperature.
(§2) The incorporated Edu was detected by Click-iT reaction where fixed cells were incubated with a reaction mixture containing 1× Click-iT Edu reaction buffer, CuSO4, and azide-conjugated Alexa Fluor dye in the dark. The stained cells were washed with PBS two times before image acquisition and analysis.
(§3) For image acquisition and analysis, the stained tumor cells were imaged by a high-content screening (HCS) platform (Thermo Scientific CellomicsArrayScanXTi HCS reader). The 10× objective was used to collect images. Twenty-five fields were imaged for each well for the analysis. From the images three fluorescent signals were obtained from the HCS reader. Blue fluorescent signals recorded nucleus signals stained with Hoechst 33342, green fluorescent signal detected the Edu incorporated in newly synthesized DNA, and red fluorescent signal detected the EpCAM positive epithelial cells population.
The MI (Maximum Inhibition Index) was calculated using the EpCAM and Edu positive readout (Tables 1-4). MI=Edu positive cells in control/Edu positive cells in treatment. MI4 indicates an MI value after 4 days of treatment and MI7 indicates an MI values after 7 days of treatment. […] GI % is calculated as GI %=(1−1/MI)*100%.

[2] = test system: KRAS^G12A-NSCLC H2009 cell line; assay: Ex vivo Edu proliferation test (MI, GI %), H2009; conditions: Table 1; 4 days; uM: osimertinib 0.5, afatinib 0.2, cobimetinib 0.4, trametinib 0.02, TAK-733 0.18, palbociclib 0.15, ribociclib 5
Experimental: as §1, §2, §3
(§4) The MI (Maximum Inhibition Index) was calculated using the EpCAM and Edu positive readout (Tables 1-4). MI=Edu positive cells in control/Edu positive cells in treatment. MI4 indicates an MI value after 4 days of treatment and MI7 indicates an MI values after 7 days of treatment. The MI and growth inhibition rate (GI %) values for KRAS^G12A-NSCLC (H1573 and H2009), KRAS^G12C-NSCLC (H358, H23 and H2030), KRAS^G12V-NSCLC (H2291 and H2444) and KRAS^G12D-NSCLC (H1588 and SK-LU-1) cell lines are shown in Tables 1-4, respectively. GI % is calculated as GI %=(1−1/MI)*100%.

[3] = test system: KRAS^G12C-NSCLC H358 cell line; assay: Ex vivo Edu proliferation test (MI, GI %), H358; conditions: Table 2a; 7 days; uM: osimertinib 0.5, afatinib 0.2, cobimetinib 0.4, trametinib 0.02, palbociclib 0.15, ribociclib 5
Experimental: as §1, §2, §3, §4

[4] = test system: KRAS^G12C-NSCLC H23 cell line; assay: Ex vivo Edu proliferation test (MI, GI %), H23; conditions: Table 2a; 7 days; uM: osimertinib 0.5, afatinib 0.2, cobimetinib 0.4, trametinib 0.02, palbociclib 0.15, ribociclib 5
Experimental: as §1, §2, §3, §4

[5] = test system: KRAS^G12C-NSCLC H2030 cell line; assay: Ex vivo Edu proliferation test (MI, GI %), H2030; conditions: Table 2a; 7 days; uM: osimertinib 0.5, afatinib 0.2, cobimetinib 0.4, trametinib 0.02, palbociclib 0.15, ribociclib 5
Experimental: as §1, §2, §3, §4

[6] = test system: KRAS^G12V-NSCLC H2291 cell line; assay: Ex vivo Edu proliferation test (MI, GI %), H2291; conditions: Table 3; 7 days; uM: osimertinib 0.5, afatinib 0.2, trametinib 0.02, TAK-733 0.18, palbociclib 0.15, ribociclib 5
Experimental: as §1, §2, §3, §4

[7] = test system: KRAS^G12V-NSCLC H2444 cell line; assay: Ex vivo Edu proliferation test (MI, GI %), H2444; conditions: Table 3; 4 days; uM: osimertinib 0.5, afatinib 0.2, trametinib 0.02, TAK-733 0.18, palbociclib 0.15, ribociclib 5
Experimental: as §1, §2, §3, §4

[8] = test system: KRAS^G12D-NSCLC H1588 cell line; assay: Ex vivo Edu proliferation test (MI, GI %), H1588; conditions: Table 4; 4 days; uM: osimertinib 0.5, afatinib 0.2, cobimetinib 0.4, trametinib 0.02, TAK-733 0.18, palbociclib 0.15, ribociclib 5
Experimental: as §1, §2, §3, §4

[9] = test system: KRAS^G12D-NSCLC SK-LU-1 cell line; assay: Ex vivo Edu proliferation test (MI, GI %), SK-LU-1; conditions: Table 4; 4 days; uM: osimertinib 0.5, afatinib 0.2, cobimetinib 0.4, trametinib 0.02, TAK-733 0.18, palbociclib 0.15, ribociclib 5
Experimental: as §1, §2, §3, §4

SMILES: CC(=O)Nc1cccc(-n2c(=O)n(C3CC3)c(=O)c3c(Nc4ccc(I)cc4F)n(C)c(=O)c(C)c32)c1 [Trametinib, trametinib]
- GI % (Growth Inhibition Rate), H1573 [1]: 87.80%
- MI 4 (Maximum Inhibition Index), H1573 [1]: 8.20
- GI % (Growth Inhibition Rate), H2009 [2]: 65.93%
- MI 4 (Maximum Inhibition Index), H2009 [2]: 2.93
- GI % (Growth Inhibition Rate), H358 [3]: 20.76%
- MI 7 (Maximum Inhibition Index), H358 [3]: 1.26
- GI % (Growth Inhibition Rate), H23 [4]: 1.20%
- MI 7 (Maximum Inhibition Index), H23 [4]: 1.01
- GI % (Growth Inhibition Rate), H2030 [5]: 64.45%
- MI 7 (Maximum Inhibition Index), H2030 [5]: 2.81
- GI % (Growth Inhibition Rate), H2291 [6]: 75.62%
- MI 7 (Maximum Inhibition Index), H2291 [6]: 4.11
- GI % (Growth Inhibition Rate), H2444 [7]: 87.22%
- MI 4 (Maximum Inhibition Index), H2444 [7]: 7.82
- GI % (Growth Inhibition Rate), H1588 [8]: 45.63%
- MI 4 (Maximum Inhibition Index), H1588 [8]: 1.84
- GI % (Growth Inhibition Rate), SK-LU-1 [9]: 47.99%
- MI 4 (Maximum Inhibition Index), SK-LU-1 [9]: 1.92
